Measured values: US9598396B2, “Tetrahydrophenanthridinones and tetrahydrocyclopentaquinolinones as PARP and tubulin polymerization inhibitors” (Janssen Pharmaceutica NV, priority 2008, dated 2017)

Experiments:
Human PARP-1 enzyme = Human PARP-1 enzyme (Homo sapiens (Human), UniProt P09874); experiment: In vitro Scintillation Proximity Assay (SPA) for PARP-1 inhibitory activity; type: biochemical; conditions: nicked DNA activated PARP-1, [3H]-NAD+, biotinylated histones
Description: C.1.In Vitro Scintillation Proximity Assay (SPA) for PARP-1 Inhibitory Activity
Compounds of the present invention were tested in an in vitro assay based on SPA technology (proprietary to GE healthcare).
In principle, the assay relies upon the well established SPA technology for the detection of poly(ADP-ribosyl)ation of biotinylated target proteins, i.e histones. This ribosylation is induced using nicked DNA activated PARP-1 enzyme and [^3H]-nicotinamide adenine dinucleotide ([^3H]-NAD^+) as ADP-ribosyl donor.
Histones (type II-A, supplier: Sigma) were biotinylated using the biotinylation kit of Amersham and stored aliquoted at −20° C. A stock solution of 100 mg/ml SPA poly(vinyl toluene) (PVT) beads (supplier: Amersham) was made in PBS. A stock solution of 61.6 nM […] was made by adding [^3H]-NAD^+ (0.1 mCi/ml, supplier: Perkin Elmer) to incubation buffer (50 mM Tris/HCl, pH 8; 0.2 mM DTT; 4 mM MgCl2). A solution of 4 mM NAD^+ (supplier: Sigma) was made. Human PARP-1 enzyme was obtained from Trevigen. Biotinylated histones and PVT-SPA beads were mixed and pre-incubated for 30 minutes at room temperature. PARP-1 enzyme (concentration was lot dependent) was mixed with the nicked DNA and the mixture was pre-incubated for 30 minutes at 4° C. Equal parts of this histones/PVT-SPA beads solution and PARP-1 enzyme/DNA solution were mixed and 75 μl of this mixture together with 1 μl of compound in DMSO and 25 μl of [^3H]-NAD^+was added per well into a 96-well microtiterplate. The final concentrations in the incubation mixture were 2 μg/ml for the biotinylated histones, 2 mg/ml for the PVT-SPA beads, 0.25 μg/ml for the nicked DNA and between 0.1-0.2 μg/ml for the PARP-1 enzyme. After incubation of the mixture for 20 minutes at room temperature, the reaction was terminated by adding 100 μl of 4 mM NAD^+ in water (final concentration 2 mM) and plates were mixed. The beads were sedimented by centrifugation (10 min, 800 rpm) and plates transferred to a TopCountNXT™ (Packard) for scintillation counting, values were expressed as counts per minute (cpm). For each experiment, controls (containing PARP-1 enzyme and DMSO without compound), a blank incubation (containing DMSO but no PARP-1 enzyme, no DNA or compound) and samples (containing PARP-1 enzyme, DNA and compound dissolved in DMSO) were run in parallel. All compounds tested were dissolved and eventually further diluted in DMSO. A dose-response curve was made wherein the compounds were tested at concentrations between 10^−5M and 3×10^−9M. In each test, the blank value was subtracted from both the control and the sample values. The control sample represented maximal PARP-1 enzyme activity. For each sample, the amount of cpm was expressed as a percentage of the mean cpm value of the controls. […] Herein the effects of test compounds are expressed as pIC50 (the negative log value of the IC50-value). As a reference compound, 4-amino-1,8-naphthalimide was included to validate the SPA assay.

TANK-2 enzyme = TANK-2 enzyme (Homo sapiens (Human), UniProt Q9H2K2); experiment: In vitro Scintillation Proximity Assay (SPA) for TANK-2 inhibitory activity; type: biochemical; conditions: auto-poly(ADP-ribosyl)ation, [3H]-NAD+, Ni flash plates (96 or 384 well)
Chain of TANK-2 enzyme (Q9H2K2 whole entry): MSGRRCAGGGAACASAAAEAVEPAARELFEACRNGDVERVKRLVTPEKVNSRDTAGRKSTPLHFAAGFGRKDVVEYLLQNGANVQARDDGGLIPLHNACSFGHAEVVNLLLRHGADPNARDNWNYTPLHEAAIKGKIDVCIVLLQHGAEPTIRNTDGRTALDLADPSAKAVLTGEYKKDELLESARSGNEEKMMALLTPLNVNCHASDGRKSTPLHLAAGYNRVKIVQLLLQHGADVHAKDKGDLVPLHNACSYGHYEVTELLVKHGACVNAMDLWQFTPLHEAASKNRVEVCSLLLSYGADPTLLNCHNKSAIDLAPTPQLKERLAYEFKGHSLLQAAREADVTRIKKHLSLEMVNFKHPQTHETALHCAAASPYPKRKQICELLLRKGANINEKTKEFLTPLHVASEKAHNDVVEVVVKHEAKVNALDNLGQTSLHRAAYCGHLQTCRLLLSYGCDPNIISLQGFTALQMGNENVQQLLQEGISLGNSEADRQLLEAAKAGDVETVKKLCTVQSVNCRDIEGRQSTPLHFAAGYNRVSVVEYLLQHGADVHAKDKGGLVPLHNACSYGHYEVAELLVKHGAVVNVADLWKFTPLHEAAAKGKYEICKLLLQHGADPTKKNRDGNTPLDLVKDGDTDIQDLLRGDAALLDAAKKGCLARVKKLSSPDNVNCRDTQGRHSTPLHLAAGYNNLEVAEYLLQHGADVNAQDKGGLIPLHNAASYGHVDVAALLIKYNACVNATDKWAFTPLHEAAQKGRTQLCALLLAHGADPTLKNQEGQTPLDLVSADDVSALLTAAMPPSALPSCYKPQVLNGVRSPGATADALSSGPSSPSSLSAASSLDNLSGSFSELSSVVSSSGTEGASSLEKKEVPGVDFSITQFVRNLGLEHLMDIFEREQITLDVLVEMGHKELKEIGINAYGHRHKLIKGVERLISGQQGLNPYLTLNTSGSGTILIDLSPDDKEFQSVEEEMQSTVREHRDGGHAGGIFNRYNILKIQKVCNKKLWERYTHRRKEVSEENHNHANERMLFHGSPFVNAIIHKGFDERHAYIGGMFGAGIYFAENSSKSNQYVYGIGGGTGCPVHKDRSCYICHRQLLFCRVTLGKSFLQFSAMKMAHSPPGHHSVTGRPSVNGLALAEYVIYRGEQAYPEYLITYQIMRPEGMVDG
Description: C.2.In Vitro Scintillation Proximity Assay (SPA) for TANK-2 Inhibitory Activity
Compounds of the present invention were tested in an in vitro assay based on SPA technology with Ni Flash plates (96 or 384 well).
In principle, the assay relies upon SPA technology for the detection of auto-poly(ADP-ribosyl)ation of TANK-2 protein using [^3H]-nicotinamide adenine dinucleotide ([^3H]-NAD^+) as ADP-ribosyl donor.
A stock solution of 100 nM [^3H]-NAD^+/NAD (0.1 mCi/ml, supplier: Perkin Elmer) and 25 μM NAD (Sigma) was made in assay buffer (60 mM Tris/HCl, pH 7.4; 0.9 mM DTT; 6 mM MgCl2). The TANK-2 enzyme was produced as described in EP1238063. 60 μl of assay buffer, together with 1 μl of compound in DMSO, 20 μl of [^3H]-NAD^+/NAD and 20 μl of TANK-2 enzyme (final concentration 8 μg/ml) was added per well into a 96-well Ni-coated flash plate (Perkin Elmer). After incubation of the mixture for 120 minutes at room temperature, the reaction was terminated by adding 60 μl of stopsolution (42.6 mg NAD in 6 ml H2O). The plates were covered with a plate sealer and placed in a TopCountNXT™ (Packard) for scintillation counting. Values were expressed as counts per minute (cpm). For each experiment, controls (containing TANK-2 enzyme and DMSO without compound), a blank incubation (containing DMSO but no TANK-2 enzyme or compound) and samples (containing TANK-2 enzyme and compound dissolved in DMSO) were run in parallel. All compounds tested were dissolved and eventually further diluted in DMSO. In first instance, compounds were tested at a concentration of 10^−5M. […] In each test, the blank value was subtracted from both the control and the sample values. The control sample represented maximal TANK-2 enzyme activity. For each sample, the amount of cpm was expressed as a percentage of the mean cpm value of the controls. […] Herein the effects of test compounds are expressed as pIC50 (the negative log value of the IC50-value). As reference compounds, 3-aminobenzamide and 4-amino-1,8-naphtalimide were included to validate the SPA assay. Herein the assay was described using 96-well plates. In the assay using 384-well plates the same final concentrations were used and volumes were adapted.

[1] = tested on: Human colon carcinoma HCT116 cells; experiment: Detection of antiproliferative activity (Alamar Blue assay); type: cell-based; conditions: HCT-116, 96 h, 4-day incubation, read-out: Cellular assay HCT116 pIC50 (converted)
Description: Example C.4 Detection of Antiproliferative Activity
Human colon carcinoma HCT116 cells obtained from the ATCC were cultured in McCoy's 5A medium supplemented with 2 mM L-Glutamine, 50 μg/ml gentamicin and 10% heat inactivated fetal calf serum.
Reagents used in the Alamar Blue Assay
Resazurin was purchased from Aldrich (Prod. No. 199303). Potassium ferrocyanide, potassium ferricyanide, KH2PO4 and K2HPO4 were purchased from Sigma (Prod. Nos. P9387, P8131, P5655 and P8281, respectively).
Potassium Phosphate Buffer 0.1 M (PPB) was made as follows: 2.72 gram KH2PO4 and 13.86 gram K2HPO4 were dissolved in 500 ml milli-Q H2O, the pH was adjusted to pH 7.4 and the volume was brought to 1 liter with milli-Q H2O; the buffer was filter sterilised and stored at room temperature. Resazurin stock solution (PPB-A) was prepared fresh by dissolving 45 mg resazurin in 15 ml PBS. 30 mM potassium ferricyanide (PPB-B) was prepared by dissolving 0.987 gram potassium ferricyanide in 100 ml PPB. 30 mM potassium ferrocyanide (PPB-C) was prepared by dissolving 1.266 gram potassium ferrocyanide in 100 ml PPB.
Mixture of PPB-A, PPB-B and PPB-C was prepared by mixing equal volumes of the respective solutions. Resazurin work solution (herein termed “Alamar Blue” solution) was prepared by diluting said mixture 20× (vol/vol) in PPB and filter sterilising; the Alamar Blue solution could be kept at 4° C. for a maximum of 2 weeks.
Procedure of the Alamar Blue Assay
For experiments in 384 wells plates the cells were seeded at a density of 4.5×10^3 cells/ml in Falcon 384-well culture plates (Life Technologies, Merelbeke, Belgium), black with clear bottom, in 45 μl culture medium. Cells were allowed to adhere to plastic for 24 hours. The tested compound was pre-diluted (1/50 in culture medium) and 5 μl pre-diluted compound was added to the wells. Following 4-day incubation, 10 μl of the Alamar Blue solution was added to each well and the cells were further incubated for 4 hours (HCT116) or 24 hours (PC-3) at 37° C. The fluorescence intensity was measured for each well on a Fluorescence plate reader (Fluorskan, Labsystems, 540 nm excitation and 590 nm emission)
The antiproliferative activity was calculated as percentage of remaining viable cells in treated versus control (untreated cells) conditions. Within an experiment, the result for each experimental condition is the mean of 3 replicate wells. When appropriate, the experiments were repeated to establish full concentration-response curves. […] Herein the effects of tested compounds are expressed as pIC50 (the negative log value of the IC50 value) (see Table 3).

Chain of Human PARP-1 enzyme (P09874 whole entry): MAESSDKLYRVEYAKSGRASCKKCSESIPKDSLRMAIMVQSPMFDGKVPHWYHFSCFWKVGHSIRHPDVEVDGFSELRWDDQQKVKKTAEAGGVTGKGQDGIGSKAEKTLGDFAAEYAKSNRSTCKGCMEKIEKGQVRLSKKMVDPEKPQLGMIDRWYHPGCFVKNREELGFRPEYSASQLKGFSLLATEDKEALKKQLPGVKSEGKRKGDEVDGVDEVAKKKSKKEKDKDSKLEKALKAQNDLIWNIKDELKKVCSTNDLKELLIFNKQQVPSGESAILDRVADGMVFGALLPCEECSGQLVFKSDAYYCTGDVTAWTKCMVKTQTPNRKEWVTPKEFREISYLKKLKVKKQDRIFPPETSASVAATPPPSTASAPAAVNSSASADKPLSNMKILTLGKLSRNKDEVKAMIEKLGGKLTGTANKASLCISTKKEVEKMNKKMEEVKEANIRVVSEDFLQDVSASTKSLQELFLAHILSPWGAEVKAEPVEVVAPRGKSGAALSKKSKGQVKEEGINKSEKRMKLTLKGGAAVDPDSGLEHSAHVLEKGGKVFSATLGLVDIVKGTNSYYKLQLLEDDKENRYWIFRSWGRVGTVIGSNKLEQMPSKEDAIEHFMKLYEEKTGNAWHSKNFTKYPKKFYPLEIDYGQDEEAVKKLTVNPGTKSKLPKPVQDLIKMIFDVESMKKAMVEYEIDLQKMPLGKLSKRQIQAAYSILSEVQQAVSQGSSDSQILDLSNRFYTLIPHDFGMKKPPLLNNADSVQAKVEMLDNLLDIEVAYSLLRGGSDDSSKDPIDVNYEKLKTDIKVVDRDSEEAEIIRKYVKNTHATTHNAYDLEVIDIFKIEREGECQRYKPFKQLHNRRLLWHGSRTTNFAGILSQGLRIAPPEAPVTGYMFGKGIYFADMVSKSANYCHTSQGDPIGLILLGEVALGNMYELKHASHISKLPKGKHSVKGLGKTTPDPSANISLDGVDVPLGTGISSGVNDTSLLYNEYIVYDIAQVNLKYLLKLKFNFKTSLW

Row | in vitro SPA assay PARP-1 pIC50 (Human PARP-1 enzyme) | in vitro SPA assay TANK-2 pIC50 (TANK-2 enzyme) | IC50 [1] [nM] | IC50 (Human PARP-1 enzyme; read-out: in vitro SPA assay PARP-1 pIC50 (converted)) [nM] | IC50 (TANK-2 enzyme; read-out: in vitro SPA assay TANK-2 pIC50 (converted)) [nM] | Compound
1 | 7.33 | 7.43 | > 10000 |  |  | C[C@@](C#N)(Cc1ccccc1)c1ccc2c3c(c(=O)[nH]c2c1)CCCC3 (single isomer, unassigned) [Co. No. 2]
2 | 7.26 | 7.48 | 158 |  |  | C[C@](C#N)(Cc1ccccc1)c1ccc2c3c(c(=O)[nH]c2c1)CCCC3 (single isomer, unassigned) [Co. No. 3]
3 | 7.80 | 7.40 | > 10000 |  |  | C[C@@](C#N)(Cc1cccc(F)c1)c1ccc2c3c(c(=O)[nH]c2c1)CCCC3 (single isomer, unassigned) [Co. No. 5a]
4 | 7.44 | 7.47 | 97.7 |  |  | C[C@](C#N)(Cc1cccc(F)c1)c1ccc2c3c(c(=O)[nH]c2c1)CCCC3 (single isomer, unassigned) [Co. No. 5b]
5 | 7.20 | 6.35 | 158 |  |  | CC(C#N)(Cc1cc(Cl)nc(Cl)c1)c1ccc2c3c(c(=O)[nH]c2c1)CCCC3 (stereo not drawn) [Co. No. 9]
6 | 6.66 | 7.23 | 186 |  |  | CC(C#N)(Cc1cccc(OC(F)(F)F)c1)c1ccc2c3c(c(=O)[nH]c2c1)CCCC3 (stereo not drawn) [Co. No. 10]
7 | 7.06 | 7.45 | 155 |  |  | COc1cccc(CC(C)(C#N)c2ccc3c4c(c(=O)[nH]c3c2)CCCC4)c1 (stereo not drawn) [Co. No. 11]
8 | 7.34 | 7.37 | 178 |  |  | Cn1nc(CC(C)(C#N)c2ccc3c4c(c(=O)[nH]c3c2)CCCC4)c2ccccc21 (stereo not drawn) [Co. No. 12]
9 | 7.38 | 7.37 | 269 |  |  | Cn1c(CC(C)(C#N)c2ccc3c4c(c(=O)[nH]c3c2)CCCC4)nc2ccccc21 (stereo not drawn) [Co. No. 13]
10 |  |  | 105 | 97.7 | 63.1 | COC(=O)c1cccc(CC(C)(C#N)c2ccc3c4c(c(=O)[nH]c3c2)CCCC4)c1 (stereo not drawn) [Co. No. 14]
11 | 7.48 | 7.39 | 229 |  |  | CC(C#N)(Cc1cccc(CO)c1)c1ccc2c3c(c(=O)[nH]c2c1)CCCC3 (stereo not drawn) [Co. No. 15]
12 | 6.10 | 7.42 | 417 |  |  | CC(C#N)(Cc1cccc(CN)c1)c1ccc2c3c(c(=O)[nH]c2c1)CCCC3 (stereo not drawn) [Co. No. 16]
13 |  |  | > 10000 |  |  | CN(CC(C)(C#N)c1ccc2c3c(c(=O)[nH]c2c1)CCCC3)C(=O)c1ccccc1 (stereo not drawn) [Co. No. 18]
14 |  | 7.19 | 589 |  |  | CN(Cc1ccc(C#N)cc1)CC(C)(C#N)c1ccc2c3c(c(=O)[nH]c2c1)CCCC3 (stereo not drawn) [Co. No. 19]
